This is an account of results in patent US8580829B2 (Boehringer Ingelheim International GmbH, priority 2010, dated 2013).

Assay [1] addresses T1, recombinant human FLAP protein (Homo sapiens, UniProt P20292).
T1 construct: made in house; host or cells: Sf9 insect cells (100,000 x g membrane fraction)
T1 sequence (P20292 1-161): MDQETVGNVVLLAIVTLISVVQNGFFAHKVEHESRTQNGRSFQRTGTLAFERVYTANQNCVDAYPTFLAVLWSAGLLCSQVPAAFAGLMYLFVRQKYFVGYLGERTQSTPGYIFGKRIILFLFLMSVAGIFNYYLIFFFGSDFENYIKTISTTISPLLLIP
Nature of the assay: FLAP binding assay (Scintillation Proximity Assay, displacement of [125I]L-691,831). To be noted: recombinant human FLAP membranes, [125I]L-691,831 probe; read-out: FLAP SPA IC50. Here is the method: Cell pellets produced from sf9 insect cells expressing recombinant human FLAP protein are resuspended in buffer A [15 mM Tris-HCl (pH 7.5), 2 mM MgCl2, 0.3 mM EDTA, 1 mM PMSF]. The cells are lysed with a Dounce homogenizer and the material is centrifuged at 10,000×g for 10 minutes. The supernatant is then collected and centrifuged at 100,000×g for 60 minutes. To prepare membrane protein for an assay, an aliquot of the 100,000×g pellet is resuspended in 1 ml of buffer A, Dounce homogenized, and finally subjected to polytron mixing (30 seconds). Membrane protein (25 μl, 5 μg) is mixed with WGA SPA beads (Amersham) and stirred for 1 h.

In assay [2] the test system is synthesis of LTB4 in human whole blood. Nature of the assay: human whole blood LTB4 production inhibition assay. The following applies: Homo sapiens, heparinized human whole blood, calcimycin 20 μM; read-out: hWB LTB4 IC50. Type of assay: cell-based. The method, then:
Compounds are additionally tested in a human whole blood assay to determine their ability to inhibit the synthesis of LTB4 in a cellular system. Compounds are combined with heparinized human whole blood and incubated for 15 minutes at 37° C. Calcimycin (20 μM final, prepared in phosphate-buffered saline, pH 7.4) is then added and the mixture is incubated for another 30 minutes at 37° C. The samples are centrifuged for 5 min at low speed (1500×g) and the plasma layer is removed. Plasma LTB4 concentrations are then measured using an antibody-based homogenous time-resolved fluorescence method (CisBio, Bedford, Mass.).

The IC50 is the concentration at which inhibition is half-maximal.

Where only a bound is given, the exact number is not on record here.

As to `Nc1ncc(-c2ccc(C3(c4noc(-c5ccc(C(=O)NCCO)nc5)n4)CCC3)cc2)cn1` [Example 77, 5-(3-{1-[4-(2-Amino-pyrimidin-5-yl)-phenyl]-cyclobutyl}-1,2,4-oxadiazol-5-yl)-pyridine-2-carboxylic acid (2-hydroxy-ethyl)-amide], the results for the IC50 in assay [1] and in assay [2] were 2.6 nM and 160 nM, respectively.

For the compound `Nc1ccc(-c2nc(C3(c4ccc(-c5cnc(N)nc5)cc4)CCC3)no2)cn1` [Example 20, 5-(4-{1-[5-(6-Amino-pyridin-3-yl)-1,2,4-oxadiazol-3-yl]-cyclobutyl}-phenyl)-pyrimidin-2-ylamine], the IC50 in assay [1] is 1.9 nM; in assay [2] it was 63 nM.

As to `Nc1ncc(-c2ccc(C3(c4noc(-c5cnn(CC(=O)N6CCCC6)c5)n4)CCC3)cc2)cn1` [Example 137, 2-[4-(3-{1-[4-(2-Amino-pyrimidin-5-yl)-phenyl]-cyclobutyl}-1,2,4-oxadiazol-5-yl)-pyrazol-1-yl]-1-pyrrolidin-1-yl-ethanone], the IC50 in assay [1] turned out to be 7.7 nM; in assay [2] it was 170 nM.

In the case of `COCCNC(=O)Cn1cc(-c2nc(C3(c4ccc(-c5cnc(N)nc5)cc4)CCC3)no2)cn1` [Example 228, 2-[4-(3-{1-[4-(2-Amino-pyrimidin-5-yl)-phenyl]-cyclobutyl}-[1,2,4]oxadiazol-5-yl)-pyrazol-1-yl]-N-(2-methoxy-ethyl)-acetamide], the IC50 in assay [1] is 3.3 nM; in assay [2] it was 160 nM.

In the case of `Nc1ncc(-c2ccc(C3(c4noc(-c5cnn6cccnc56)n4)CCC3)cc2)cn1` [Example 72, 5-{4-[1-(5-Pyrazolo[1,5-a]pyrimidin-3-yl-1,2,4-oxadiazol-3-yl)-cyclobutyl]-phenyl}-pyrimidin-2-ylamine], the IC50 in assay [1] was determined as 1.9 nM; in assay [2], 18 nM.

In the case of `Nc1ncc(-c2ccc(C3(c4noc(-c5cnc(N6CCNC(=O)C6)cn5)n4)CCC3)cc2)cn1` [Example 201, 5′-(3-{1-[4-(2-Amino-pyrimidin-5-yl)-phenyl]-cyclobutyl}-1,2,4-oxadiazol-5-yl)-5,6-dihydro-4H-1,2′-bipyrazinyl-3-one], the IC50 is 2.3 nM in assay [1] and 400 nM in assay [2].

Regarding `CNC(=O)Cn1cccc(-c2nc(C3(c4ccc(-c5cnc(N)nc5)cc4)CCC3)no2)c1=O` [Example 118, 2-[3-(3-{1-[4-(2-amino-pyrimidin-5-yl)-phenyl]-cyclobutyl}-1,2,4-oxadiazol-5-yl)-2-oxo-2H-pyridin-1-yl]-N-methyl-acetamide], the IC50 in assay [1] stood at 21 nM; in assay [2], 1700 nM.

Consider `CNC(=O)Cn1cc(-c2nc(C3(c4ccc(-c5cnc(N)nc5)cc4)CCC3)no2)cn1` [Example 81, 2-[4-(3-{1-[4-(2-Amino-pyrimidin-5-yl)-phenyl]-cyclobutyl}-1,2,4-oxadiazol-5-yl)-pyrazol-1-yl]-N-methyl-acetamide], for which the values for the concentration for half-maximal inhibition (IC50) in assay [1] and in assay [2] were 6.4 nM and 130 nM, respectively.

Consider `Cc1ccc(-c2nc(C3(c4ccc(-c5cnc(N)nc5)cc4)CCC3)no2)cc1` [Example 35, 5-{4-[1-(5p-Tolyl-1,2,4-oxadiazol-3-yl)-cyclobutyl]-phenyl}-pyrimidin-2-ylamine], for which the IC50 in assay [1] was found to be 3.6 nM; in assay [2] it was 600 nM.

As to `Nc1ncc(-c2ccc(C3(c4noc(-c5ccc(C(=O)N6CCOCC6)nc5)n4)CCC3)cc2)cn1` [Example 30, [5-(3-{1-[4-(2-Amino-pyrimidin-5-yl)-phenyl]-cyclobutyl}-1,2,4-oxadiazol-5-yl)-pyridin-2-yl]-morpholin-4-yl-methanone], the IC50 in assay [1] is 6.5 nM; in assay [2] it was 230 nM.

For the compound `COC(=O)C(C)(C)Nc1cnc(-c2nc(C3(c4ccc(-c5cnc(N)nc5)cc4)CCC3)no2)cn1` [Example 90, 2-[5-(3-{1-[4-(2-Amino-pyrimidin-5-yl)-phenyl]-cyclobutyl}-1,2,4-oxadiazol-5-yl)-pyrazin-2-ylamino]-2-methyl-propionic acid methyl ester], the figures for the IC50 in assay [1] and in assay [2] were 3.4 nM and 210 nM, respectively.

On to `CC(=O)NCCn1cc(-c2nc(C3(c4ccc(-c5cnc(N)nc5)cc4)CCC3)no2)cn1` [Example 229, N-{2-[4-(3-{1-[4-(2-Amino-pyrimidin-5-yl)-phenyl]-cyclobutyl}-[1,2,4]oxadiazol-5-yl)-pyrazol-1-yl]-ethyl}-acetamide], for which the IC50 in assay [1] worked out at 6 nM; in assay [2], 410 nM.

In the case of `CCn1cccc(-c2nc(C3(c4ccc(-c5cnc(N)nc5)cc4)CCC3)no2)c1=O` [Example 65, 3-(3-{1-[4-(2-Amino-pyrimidin-5-yl)-phenyl]-cyclobutyl}-1,2,4-oxadiazol-5-yl)-1-ethyl-1H-pyridin-2-one], the results for the IC50 in assay [1] and in assay [2] were 5.9 nM and 97 nM, respectively.

Turning to `CC(C)(C#N)NC(=O)Cn1cc(-c2nc(C3(c4ccc(-c5cnc(N)nc5)cc4)CCC3)no2)cn1` [Example 223, 2-[4-(3-{1-[4-(2-Amino-pyrimidin-5-yl)-phenyl]-cyclobutyl}-[1,2,4]oxadiazol-5-yl)-pyrazol-1-yl]-N-(cyano-dimethyl-methyl)-acetamide], the figures for the IC50 in assay [1] and in assay [2] were 1.8 nM and 460 nM, respectively.

Turning to `NCCn1cc(-c2nc(C3(c4ccc(-c5cnc(N)nc5)cc4)CCC3)no2)cn1` [Example 227, 5-[4-(1-{5-[1-(2-Amino-ethyl)-1H-pyrazol-4-yl]-[1,2,4]oxadiazol-3-yl}-cyclobutyl)-phenyl]-pyrimidin-2-ylamine], the IC50 stood at 2.6 nM in assay [1] and 240 nM in assay [2].

`CNc1ncc(-c2ccc(C3(c4noc(-c5cnn(C)c5)n4)CCC3)cc2)cn1` [Example 294, Methyl-[5-(4-{1-[5-(1-methyl-1H-pyrazol-4-yl)-[1,2,4]oxadiazol-3-yl]-cyclobutyl}-phenyl)-pyrimidin-2-yl]-amine]: the IC50 in assay [1] was 4.4 nM; in assay [2], 35 nM.

With `Cc1ccc(-c2nc(C3(c4ccc(-c5cnc(N)nc5)cc4)CCC3)no2)c(=O)[nH]1` [Example 192, 3-(3-{1-[4-(2-Amino-pyrimidin-5-yl)-phenyl]-cyclobutyl}-1,2,4-oxadiazol-5-yl)-6-methyl-1H-pyridin-2-one], the IC50 in assay [1] was 1.7 nM; in assay [2], above 5000 nM.

Turning to `C[C@@H]1CCC[C@H](C)N1c1nc(C2(c3ccc(-c4cnc(N)nc4)cc3)CCC2)no1` [Example 306, 5-(4-{1-[5-(cis-2,6-Dimethyl-piperidin-1-yl)-[1,2,4]oxadiazol-3-yl]-cyclobutyl}-phenyl)-pyrimidin-2-ylamine], the IC50 in assay [1] is 12 nM; in assay [2], 580 nM.

Turning to `Nc1ncc(-c2ccc(C3(c4noc(-c5cn[nH]c5)n4)CCC3)cc2)cn1` [Example 175, 5-(4-{1-[5-(1H-Pyrazol-4-yl)-1,2,4-oxadiazol-3-yl]-cyclobutyl}-phenyl)-pyrimidin-2-ylamine], the IC50 in assay [1] came out at 2.3 nM; in assay [2], 110 nM.

For the compound `Nc1ncc(-c2ccc(C3(c4noc(-c5ccc(O)c(Cl)c5)n4)CCC3)cc2)cn1` [Example 100, 4-(3-{1-[4-(2-Amino-pyrimidin-5-yl)-phenyl]-cyclobutyl}-1,2,4-oxadiazol-5-yl)-2-chloro-phenol], the concentration for half-maximal inhibition (IC50) in assay [1] is 2.1 nM; in assay [2] it was 170 nM.

Consider `COCCN(C)C(=O)Cn1cc(-c2nc(C3(c4ccc(-c5cnc(N)nc5)cc4)CCC3)no2)cn1` [Example 241, 2-[4-(3-{1-[4-(2-Amino-pyrimidin-5-yl)-phenyl]-cyclobutyl}-[1,2,4]oxadiazol-5-yl)-pyrazol-1-yl]-N-(2-methoxy-ethyl)-N-methyl-acetamide], for which the IC50 in assay [1] was 3.5 nM; in assay [2], 140 nM.

On to `N#Cc1ccc(-c2nc(C3(c4ccc(-c5cnc(N)nc5)cc4)CCC3)no2)nc1` [Example 186, 6-(3-{1-[4-(2-Amino-pyrimidin-5-yl)-phenyl]-cyclobutyl}-1,2,4-oxadiazol-5-yl)-nicotinonitrile], for which the IC50 amounted to 12 nM in assay [1] and 710 nM in assay [2].

For the compound `COCCNC(=O)c1ccc(-c2nc(C3(c4ccc(-c5cnc(N)nc5)cc4)CCC3)no2)cn1` [Example 76, 5-(3-{1-[4-(2-Amino-pyrimidin-5-yl)-phenyl]-cyclobutyl}-1,2,4-oxadiazol-5-yl)-pyridine-2-carboxylic acid (2-methoxy-ethyl)-amide], the IC50 worked out at 3.9 nM in assay [1] and 190 nM in assay [2].

Regarding `Nc1ncc(-c2ccc(C3(c4noc(-c5cnn(CC(=O)NCC(F)(F)F)c5)n4)CCC3)cc2)cn1` [Example 140, 2-[4-(3-{1-[4-(2-Amino-pyrimidin-5-yl)-phenyl]-cyclobutyl}-1,2,4-oxadiazol-5-yl)-pyrazol-yl]-N-(2,2,2-trifluoro-ethyl)-acetamide], the figures for the IC50 in assay [1] and in assay [2] were 4.4 nM and 68 nM, respectively.

As to `Nc1ncc(-c2ccc(C3(c4noc(-c5cnn(CCN6CCOCC6)c5)n4)CCC3)cc2)cn1` [Example 232, 5-[4-(1-{5-[1-(2-Morpholin-4-yl-ethyl)-1H-pyrazol-4-yl]-[1,2,4]oxadiazol-3-yl}-cyclobutyl)-phenyl]-pyrimidin-2-ylamine], the figures for the IC50 in assay [1] and in assay [2] were 1.8 nM and 26 nM, respectively.
